Residues, ends and D or L forms follow the SMILES beside them.
Target: E3 peptide (21 amino acid)
Assay: E/K coiled coil stability (length dependence, Figure S1), E3/K3 complex
Format: binding
Details: 21 aa long E3 and K3 peptides
Description: The PAINT process requires a dynamic equilibrium between bound and unbound states of the fluorescently labeled imager probe. In DNA-PAINT, this is achieved when the transiently formed duplexes have stabilities in the micromolar range (KD ≈ 1 μM). The interaction between the 21 amino acid (aa) long E3 and K3 peptides previously used for protein imaging[20]−[23] leads to a coiled coil complex with nanomolar stability (KD ≈ 20 nM, Figure S1). Aiming for the identification of a suitable weaker affinity, we investigated the length dependence of coiled coil stability (Figure S1).

CC[C@H](C)[C@H](NC(=O)[C@H](CCCCN)NC(C)=O)C(=O)N[C@@H](C)C(=O)N[C@@H](C)C(=O)N[C@@H](CC(C)C)C(=O)N[C@@H](CCCCN)C(=O)N[C@@H](CCC(=O)O)C(=O)N[C@@H](CCCCN)C(=O)N[C@H](C(=O)N[C@@H](C)C(=O)N[C@@H](C)C(=O)N[C@@H](CC(C)C)C(=O)N[C@@H](CCCCN)C(=O)N[C@@H](CCC(=O)O)C(=O)N[C@@H](CCCCN)C(=O)N[C@H](C(=O)N[C@@H](C)C(=O)N[C@@H](C)C(=O)N[C@@H](CC(C)C)C(=O)N[C@@H](CCCCN)C(=O)N[C@@H](CCC(=O)O)C(N)=O)[C@@H](C)CC)[C@@H](C)CC [K3] (Ac-KIAALKEKIAALKEKIAALKE-NH2)
Kd: ~0.02 µM

— publication PMC7496730, “Peptide-PAINT Super-Resolution Imaging Using Transient Coiled Coil Interactions” (Nano Letters, 2020)
